The values below come from US20220332802A1, “METHODS AND COMPOSITIONS FOR TREATMENT OF NEURODEGENERATION” (Children's Hospital Medical Center, priority 2019, published 2022).

For one data set, the target named is T1, C5aR1 (Homo sapiens, UniProt P21730).
T1 sequence (P21730 1-350): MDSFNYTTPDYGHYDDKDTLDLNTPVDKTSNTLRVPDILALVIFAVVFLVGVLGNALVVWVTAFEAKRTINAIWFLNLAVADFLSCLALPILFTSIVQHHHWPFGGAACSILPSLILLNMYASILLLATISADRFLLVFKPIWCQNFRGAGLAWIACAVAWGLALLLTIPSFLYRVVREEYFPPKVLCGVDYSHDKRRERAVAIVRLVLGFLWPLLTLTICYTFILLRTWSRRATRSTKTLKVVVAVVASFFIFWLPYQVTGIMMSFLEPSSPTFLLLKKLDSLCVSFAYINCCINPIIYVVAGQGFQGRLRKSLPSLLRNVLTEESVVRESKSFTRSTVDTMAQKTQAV
The settings on record: cited from earlier work.

Data set [1] deals with T2, GCase (Mus musculus, UniProt P17439).
T2 sequence (P17439 20-515): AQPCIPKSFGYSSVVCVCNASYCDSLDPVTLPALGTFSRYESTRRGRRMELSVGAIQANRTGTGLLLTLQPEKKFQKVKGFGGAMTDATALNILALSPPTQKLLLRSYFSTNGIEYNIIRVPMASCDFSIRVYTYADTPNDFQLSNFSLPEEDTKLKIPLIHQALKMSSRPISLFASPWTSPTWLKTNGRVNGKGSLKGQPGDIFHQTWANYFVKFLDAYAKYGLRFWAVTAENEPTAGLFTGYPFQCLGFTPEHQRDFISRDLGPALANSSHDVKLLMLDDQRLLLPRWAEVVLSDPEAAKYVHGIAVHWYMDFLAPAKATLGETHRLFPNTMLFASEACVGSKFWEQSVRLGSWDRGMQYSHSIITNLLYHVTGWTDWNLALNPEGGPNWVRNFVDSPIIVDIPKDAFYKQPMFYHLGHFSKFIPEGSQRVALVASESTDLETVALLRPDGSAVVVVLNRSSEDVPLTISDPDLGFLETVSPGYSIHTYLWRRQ
Further details: from tissue; brain examined. The settings on record: i.p. 50 mg/kg/day for 4 weeks; cited from earlier work.

Data set [2] has as its target T2, GCase.
For data set [3], the target named is T3, glucocerebrosidase (GCase) (Mus musculus, UniProt P17439).
T3 construct: from tissue; brain examined
T3 sequence (P17439 20-515): T2 sequence (P17439 20-515)
Briefly: Targeting of GCase with CBE in WT and C5aR1-/- mice, 60-day observation. Format: in vivo. Conditions: CBE-injected WT mice. An excerpt: 9V/null mice suffered from massive accumulation of GC in the brain and loss of neurons. Applicant targeted glucocerebrosidase (GCase) with conduritol B epoxide (CBE) in WT and C5aR1^−/− mice. Strikingly, CBE-injected WT mice died within 30 days.

Data set [4] relates to experimental Gaucher disease. Conditions: cited from earlier work.

With “Cyclo[N2-(1-Oxo-3-phenylpropyl)-Orn-Pro-D-Cha-Trp-Arg] [PMX 205]”, at C5aR1, the “concentration at which the peptide specifically targets C5aR1” value was “nanomolar concentrations”; the “manner of action at C5aR1” value is “pseudo-irreversible and insurmountable”.
Consider `O[C@H]1[C@H](O)[C@@H](O)[C@@H]2O[C@@H]2[C@@H]1O` (racemic) [CBE, conduritol B epoxide], for which, at GCase [1], the “reduction of GCase activity” value is reported as 25-50%. The “motor, memory and reactivity behaviour” value at GCase [2] (CBE-GCase targeted WT or C5aR1-/- mice, FIG. 8) was “no motor or memory defects but are hyper-reactive”. Moreover, the brain glucosylceramide entry on GCase [2] (brain of CBE-GCase targeted PD mouse model, FIG. 1) is recorded as “increased glucosylceramide”. The “brain C5a and C5aR1” value on GCase [2] (brains of CBE-GCase targeted PD mouse model, FIG. 2) is “increased C5a and C5aR1”. For the same molecule, the brain pro-inflammatory cytokines result on GCase [2] (brains of CBE-GCase targeted PD mouse model, FIG. 3) is “increased pro-inflammatory cytokines”. For the same molecule, the time to death in data set [3] is given as not above 30 days.

B1: C5a-(1-66, Cys27Ala)-A8B-Del.71-73) (protein)
chain: TLQKKIEEIAAKYKHSVVKKCCYDGAAVNNDETCEQRAARISLGPRCIKAFTECCVVASQLRANISFKRS
modifications: (C5a-(1-66,Cys27Ala)-A8B-Del 71-73)
notes: mutein of human C5a that targets C5aR1 and C5aR2 simultaneously
For the molecule B1, in data set [4], the “survival and disease signs” value is “increase survival and reverse disease signs”.
